Reference: US8268961B2, “Antibacterial peptides and analogues thereof” (Universita Degli Studi di Siena, priority 2004, dated 2012)
Where two headings read alike, the source gives them in different places. Positions of bridges follow the written chain, without caps; N, C: chain ends. Chains are numbered I, II in the order given. No end group written: not given here.

Columns and labels:
[1] = tested on: Escherichia coli W99FI0077; type: cell-based; conditions: W99FI0077
From the text: (§1) MIC is defined as the lowest concentration, in an antibiotic dilution range, that inhibits visible bacterial growth. The importance of MIC sensitivity test is based on the principle that in vitro sensitivity provides a predictive indication of the in vivo efficacy of the antibiotic therapy. Values are expressed as molar concentration and compared to MIC values obtained with commercially available antibiotics such as amikacin, ceftriaxone and levofloxacin (Table 3).
(§2) Reference strains (Escherichia coli ATCC 25922, Pseudomonas aeruginosa ATCC 27853, Staphylococus aureus ATCC 25923 and Chryseobacterium meningosepticum CCUG 4310) and several recent clinical isolates (including multidrug-resistant ones) of various species (Table 2) were used for conventional susceptibility testing experiments. Minimum Inhibitory Concentration (MIC) was determined by a standard microdilution assay as recommended by the National Commitee for Clinical Laboratory Standards (NCCLS) using cation-supplemented Mueller-Hinton (MH) broth (Oxoid Ltd. Basingstoke, UK) and a bacterial inoculum of 5×10^4 CFU per well, in a final volume of 100 μl. Results were recorded by visual inspection after 24 h of incubation at 37° C.

[2] = tested on: Klebsiella pneumoniae W99FI0057; type: cell-based; conditions: W99FI0057
From the text: as §1, §2

[3] = tested on: Pseudomonas aeruginosa 885149; type: cell-based; conditions: 885149
From the text: as §1, §2

[4] = tested on: Pseudomonas aeruginosa 891; type: cell-based; conditions: 891
From the text: as §1, §2

[5] = tested on: Pseudomonas aeruginosa ATCC27853; type: cell-based; conditions: ATCC27853
From the text: as §1, §2

[6] = tested on: Staphylococcus aureus ATCC 25923; type: cell-based
From the text: as §1, §2

[7] = tested on: Staphylococus aureus MIU-68A; type: cell-based, Staphylococcus aureus; conditions: Staphylococus aureus MIU-68A, meticillin-susceptible
From the text: as §1, §2

E. coli strain TG1 = test: Test of antibacterial activity (colony growth inhibition) on E. coli strain TG1; type: cell-based
Method: The antimicrobic activity of the peptides in linear form (L1, L4, L5, L6) and in MAP form (M1, M4, M5, M6) was assayed on the TG1 strain of E. coli. The peptides were incubated at various concentrations (2-1-0.5-0.25-0.12 mg/ml) with cells of E. coli (OD600=0.2) for about 1 hour at 37° C. Subsequently, the cells were plated on agar at dilution such to allow counting of individual colonies. The antimicrobic activity of the synthesised peptide L 1 and M1 is shown FIG. 1 and is compared to a non correlated MAP peptide (MNC) used as negative control.
In one example, the tetrabranched MAP peptides with the amino acid sequence: QAKIRVRLSA [SEQ ID NO: 2], KIRVRLSA [SEQ ID NO: 3], QKKIRVRLSA [SEQ ID NO: 4] are used individually in a bacterial colony growth inhibition test. The test is conducted by incubating different concentrations of MAP peptides with E. coli (strain TG1) and plating bacterial cells on agar at a dilution such to allow for individual colonies counting. The following day, the number of colonies grown after treatment with the three MAP peptides is compared.
Antimicrobic tests were conducted incubating for 75 min at 37° C., 25 μL of E. coli at the OD600 of 0.2 with 25 μl of MAP peptide dissolved in PBS at the various concentrations. The different incubations were further diluted 1:1000 in 2×TY medium and 100 μl were plated on solid 2×TY medium. The plates were left overnight at 30° C. and the individual grown colonies were counted and compared with a control, not treated with MAP peptide.

E. coli ATCC 25922 = test: Minimal bactericidal concentration (MBC); type: cell-based
Method: as §2
(§3) The MBC was determined as recommended by the National Committee for Clinical Laboratory Standards (NCCLS) on strains of E. coli ATCC 25922 and P. aeruginosa ATCC 27853.

P. aeruginosa ATCC 27853 = test: Minimal bactericidal concentration (MBC); type: cell-based
Method: as §2, §3

[8] = tested on: murine macrophage cells J774 A.1; test: Cytotoxicity test by MTT; type: cell-based, mouse
Method: The cytotoxicity of antibacterial MAP peptides was evaluated on different eukaryotic cell lines by a colorimetric assay (MTT). This assay measures the cells' ability to convert a soluble tetrazolium salt into an insoluble precipitate: formazan. The cytotoxicity of M1 was evaluated on murine macrophagic cells (J774 A.1), murine myeloma cells (SPO) and Chinese hamster ovary epithelium cells (CHO K1). As shown FIG. 4, even at high concentrations (1 mg/ml) M1 cytotoxicity on CHO K1 cells and on SPO cells is low (percent survival is 80-90%).
For cytotoxicity tests, different cell lines were used: murine myeloma cells SPO, hamster ovary epithelium cells CHO K 1, murine macrophage cells J774 A.1 and human keratinocytes HaCaT. The cells were plated in medium in RPMI 1640 (SPO and CHO K 1) and DMEM (J774 A.1 and HaCaT) with antibiotics and bovine foetal serum at 10%, in 96-well plates at the concentration of 6×10^4 (SPO, CHO K1 and J774 A.1) and 3×10^4 (HaCaT). Peptides, previously filtered with a 0.2 μm filter disk (Whatman), were added at various concentrations to the different cell lines and left in incubation over night at 37° C. Cell viability was determined adding the MTT tetrazolium salt at the concentration of 0.5 mg/ml and incubating for 90 min. The cells were solubilised with a solution at pH 4.5 containing SDS 10% and dimethylformamide 45% and read at the dual wavelength of 595/650 nm with a plate reader.

[9] = tested on: Pichia pastoris yeast strain X33; test: Effect on Pichia pastoris yeast colonies; type: cell-based
Method: To a volume of 50 μl of culture of Pichia pastoris grown 24 hour at 30° C. in YPD (Yeast Extract/Peptone/Dextrose) medium, 50 μl of MAP peptides (2 mg/ml) were added and left in incubation 150 min at 37° C. Subsequently, 50 μl of each incubation were plated on YPD solid medium and it was allowed to grow for 48 hours at 30° C. The number of colonies grown was compared with a control, where the yeast was not treated with the MAP.

[10] = Stability to plasmatic protease (HPLC); type: in vitro ADME, human
Method: Since the use of peptides as therapeutic agents is severely limited by their in vivo half-life, the stability to human serum protease of the linear peptide L1 and of the MAP peptides M1, M4, M5 and M6 was evaluated. The peptides were incubated at the concentration of 10 mM with plasma and with human serum for 2 and 24 hours; the samples were subsequently analysed in HPLC on column C18 (see materials and methods) to evaluate the presence of linear and MAP peptide not digested by the protease.
The various peptides in MAP form and the linear peptide (L1) were dissolved in H2O at the concentration of 10 mM and incubated with 10 μl of plasma and human serum for 2 and 24 hours at 37° C. To each sample were added 150 μl of methanol to block the proteolytic reaction; each sample was then centrifuged at 13,000 rpm for 2 min and to the supernatant were added 0.75 ml of 0.1% trifluoroacetic acid. The samples were analysed in reverse phase HPLC on a Vydac C18 semi-preparative column using a 30 min gradient of buffer B from 20% to 95% (buffer A: 0.1% trifluoroacetic acid/water; buffer B: 0.1% trifluoroacetic acid/methanol), to evaluate the presence of linear and MAP peptide after the proteolytic treatment.

Substance: I: QAKIRVRLSAKKA-OH / II: QAKIRVRLSAK / III: QAKIRVRLSA / IV: QAKIRVRLSA (amide I:11-IV:C, I:12-II:C, II:11-III:C) [M4]
- MIC (Molarity) [1]: 3.2 µM
- MIC (Molarity) [2]: 13 µM
- MIC (Molarity) [3]: 13 µM
- MIC (Molarity) [4]: 13 µM
- MIC (Molarity) [5]: 6.4 µM
- MIC (Molarity) ([6]; ATCC 25923): 1.3e-05 M
- MIC (Molarity) ([6]; Staphylococcus aureus ATCC 25923, reference strain, listed as M32 = M4): >1.2e-05 M
- MIC (Molarity) ([6]; Staphylococcus aureus ATCC 25923, reference strain, listed as QAKIRVRLSA): ~10^−5 M
- MIC (Molarity) [7]: >26 µM
- Concentration down to which TG1 E. coli colony growth is prevented (E. coli strain TG1; E. coli TG1, MAP form): less effective
- Antibacterial activity on E. coli TG1 colony growth (E. coli strain TG1; E. coli TG1, colony counting vs control without peptide): good antibacterial activity
- MBC (minimal concentration able to kill 99.9% of the inoculum) compared with MIC (E. coli ATCC 25922): equal to the calculated values of MIC
- MBC (minimal concentration able to kill 99.9% of the inoculum) compared with MIC (E. coli ATCC 25922; listed as QAKIRVRLSA): equal to the corresponding MIC values
- MBC (minimal concentration able to kill 99.9% of the inoculum) compared with MIC (P. aeruginosa ATCC 27853): equal to the calculated values of MIC
- MBC (minimal concentration able to kill 99.9% of the inoculum) compared with MIC (P. aeruginosa ATCC 27853; listed as QAKIRVRLSA): equal to the corresponding MIC values
- Concentration at and over which a drop in cell viability was evident (MTT) [8]: ≥ 250 µg/mL
- Vitality of J774 A.1 cells as the concentration of MAP peptides increases (MTT) [8]: decreases
- Number of yeast colonies vs negative control [9]: did not differ from the negative control
- Resistance to plasmatic protease: Plasma 2 h [10]: +
- Resistance to plasmatic protease: Plasma 24 h [10]: +
